Laboratory results from ChEMBL document CHEMBL1201862, “PubChem BioAssay data set” (2004).
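Five compound concentrations were applied to cells in 96-well plates for 48 hours; endpoints were derived by simple linear interpolation of the resulting dose-response curve. GI50 is the concentration that inhibits growth by half.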 Calls of active or inactive are those of the source. No stated cut-off is given here; in the data, active = GI50 up to about 1.1 µM and inactive = higher.

What was measured:
Assay in all cases: growth of human tumour cells (NCI), 48 h
A549 = test system: A549
ACHN = test system: ACHN
CCRF-CEM = test system: CCRF-CEM
HL-60 = test system: HL-60
HT-29 = test system: HT-29
K562 = test system: K562
LOX IMVI = test system: LOX IMVI
NCI-H23 = test system: NCI-H23
NCI-H522 = test system: NCI-H522
OVCAR-4 = test system: OVCAR-4
RPMI-8226 = test system: RPMI-8226
RXF 393 = test system: RXF 393
SF-295 = test system: SF-295
SF-539 = test system: SF-539
SK-MEL-2 = test system: SK-MEL-2
SNB-75 = test system: SNB-75
SW-620 = test system: SW-620
U-251 = test system: U-251
HOP-62 = test system: HOP-62
Malme-3M = test system: Malme-3M

Row | SMILES | GI50 (A549) | GI50 (ACHN) | GI50 (CCRF-CEM) | GI50 (HL-60) | GI50 (HT-29) | GI50 (K562) | GI50 (LOX IMVI) | GI50 (NCI-H23) | GI50 (NCI-H522) | GI50 (OVCAR-4) | GI50 (RPMI-8226) | GI50 (RXF 393) | GI50 (SF-295) | GI50 (SF-539) | GI50 (SK-MEL-2) | GI50 (SNB-75) | GI50 (SW-620) | GI50 (U-251) | GI50 (HOP-62) | GI50 (Malme-3M)
1 | CSC1=Nc2ccccc2N(C)c2c1c(-c1ccccc1)nn2C | 50.4 µM (inactive) | 29.9 µM (inactive) | 22.1 µM (inactive) | 15.2 µM (inactive) | 21.7 µM (inactive) | 17.8 µM (inactive) | 29.1 µM (inactive) | 14.1 µM (inactive) | 7.4 µM (inactive) | 43.1 µM (inactive) | 12.7 µM (inactive) | 15.6 µM (inactive) | 4.94 µM (inactive) | 63.7 µM (inactive) | 23.2 µM (inactive) | > 100 µM (inactive) | 40.6 µM (inactive) | 31.4 µM (inactive) | – | –
2 | CCCCCCNC(=O)C1=C(C)NC(C)=C(C(=O)NCCCCCC)C1 | > 100 µM (inactive) | > 100 µM (inactive) | 70.3 µM (inactive) | 31 µM (inactive) | 89.3 µM (inactive) | 65.8 µM (inactive) | > 100 µM (inactive) | > 100 µM (inactive) | > 100 µM (inactive) | > 100 µM (inactive) | > 100 µM (inactive) | > 100 µM (inactive) | > 100 µM (inactive) | > 100 µM (inactive) | > 100 µM (inactive) | 51.9 µM (inactive) | > 100 µM (inactive) | > 100 µM (inactive) | > 100 µM (inactive) | –
3 | CCOC(=O)C1C(=O)CN2CCc3c([nH]c4ccccc34)C12C(=O)OCC (stereo not given) | > 100 µM (inactive) | > 100 µM (inactive) | > 100 µM (inactive) | > 100 µM (inactive) | > 100 µM (inactive) | > 100 µM (inactive) | > 100 µM (inactive) | > 100 µM (inactive) | > 100 µM (inactive) | > 100 µM (inactive) | – | > 100 µM (inactive) | > 100 µM (inactive) | > 100 µM (inactive) | > 100 µM (inactive) | > 100 µM (inactive) | > 100 µM (inactive) | > 100 µM (inactive) | > 100 µM (inactive) | > 100 µM (inactive)
4 | CN(COC(=O)C(C)(C)C)c1nc(N(C)COC(=O)C(C)(C)C)nc(N(C)COC(=O)C(C)(C)C)n1 | < 0.01 µM (active) | 32.3 µM (inactive) | 16.7 µM (inactive) | 29.2 µM (inactive) | 34 µM (inactive) | 24 µM (inactive) | – | > 100 µM (inactive) | 77.1 µM (inactive) | 82.4 µM (inactive) | – | 21 µM (inactive) | 94.6 µM (inactive) | > 100 µM (inactive) | 61.1 µM (inactive) | 50.2 µM (inactive) | 22 µM (inactive) | – | > 100 µM (inactive) | 12.7 µM (inactive)
5 | CC(C)(C)c1ccc(-n2c3nc(=O)n(-c4ccccc4CO)c(=O)c-3cc3ccccc32)cc1 | 76.2 µM (inactive) | 69.7 µM (inactive) | 38.1 µM (inactive) | 23.8 µM (inactive) | 26.6 µM (inactive) | 45.7 µM (inactive) | 20.5 µM (inactive) | 53.1 µM (inactive) | 32.7 µM (inactive) | 49 µM (inactive) | – | 22.8 µM (inactive) | 41.1 µM (inactive) | 30.5 µM (inactive) | > 10 µM (inactive) | 26.2 µM (inactive) | 39.2 µM (inactive) | 55.6 µM (inactive) | – | > 100 µM (inactive)
6 | CC(=O)c1cccc(NC(=O)C(=O)C(C(=O)c2ccccc2F)C2OC(=O)c3ccccc32)c1 (stereo not given) | 54.8 µM (inactive) | 37.7 µM (inactive) | 14.8 µM (inactive) | 24 µM (inactive) | 35.9 µM (inactive) | 32.1 µM (inactive) | 19.5 µM (inactive) | 33.8 µM (inactive) | 19.4 µM (inactive) | 32.5 µM (inactive) | 20.3 µM (inactive) | 28.1 µM (inactive) | 42.6 µM (inactive) | > 10 µM (inactive) | 29.8 µM (inactive) | 25.8 µM (inactive) | 99.5 µM (inactive) | 19.8 µM (inactive) | 61.7 µM (inactive) | –
